Experimental data taken from patent US20230123334A1, “AMINO LIPID COMPOUND, PREPARATION METHOD THEREFOR, AND APPLICATION THEREOF” (SHENZHEN SHENXIN BIOTECHNOLOGY CO., LTD., priority 2020, published 2023).

Key:
Format in all cases: cell-based
Hela cells [1] = experiment: Transfection of Hela cell line, mRNA vectors; settings: 50 ng EGFP mRNA per well
In short: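 HeLa cells in DMEM with 10% FBS transfected with 50 ng EGFP mRNA per well. Readout is percentage of GFP-positive cells among total cells counted by Hoechst nuclear stain; Lipofectamine2000 served as positive control.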

[2] = test system: embryonic stem cells (hESC2); experiment: Screening as DNA vectors in embryonic stem cells, flow cytometry; settings: 75 ng plasmid DNA, 48 hours after transfection, flow cytometer
Description: (§1) Cell line: embryonic stem cells (hESC2, cultured according to reported methods: Stem Cells, 2005, 23, 544-549)
(§2) Medium: mTeSR1 (STEMCELL)
(§3) Mode of screening: cell transfection on 96-well plates
(§4) Detection (readout): percentage of the number of GFP fluorescent cells relative to the total number of cells. Lipofectamine Stem was used as the positive control.
Method: an 8-channel pipette was used for sample addition. The contents shown were for a single well of a 96-well flat plate.
1. Stem cells were cultured to 3-5×10^4 cells per well in a 96-well plate treated with matrigel.
2. The compound (0.01 mmol) prepared in Example 1 was dissolved in 1 mL of anhydrous ethanol. After ultrasonically dissolved, 10 μL of the resultant amino lipid solution in ethanol was taken and mixed with 5 μL of DOPE solution in ethanol ([…]). The obtained mixture was then added with 35 μL of 0.2 M sodium acetate buffer (pH 5.6), and vortexed at a constant rotating speed for 30 s. Then, 4 μL was taken from the obtained product and added to 46 μL of 0.02 M sodium acetate buffer (pH 5.6), and vortexed at a constant rotating speed for 30 s to form a liposome solution. 5 μL of this liposome solution was mixed with 75 ng of plasmid DNA (pSin-EGFP-IRES-Puro) dissolved in 5 μL of 0.02 M sodium acetate buffer, and allowed to stay at room temperature for 30 min to form a lipid/DNA transfection complex.
3. 10 μL of the lipid/DNA transfection complex was incubated at room temperature for 30 min, followed by addition of 90 μL mTeSR1 medium was added and mixing with a pipette. 100 μL of the mixture was added to separate wells of a 96-well culture plate and placed in an incubator containing 5% CO2 at 37° C.
4. 48 hours after transfection, the cells were digested with 0.05% Trypsin-EDTA. The cells were resuspended in a PBS buffer and filtered. The cell suspension was placed in a flow cytometer and the number of GFP-expressing cells in no less than 2000 cells was measured so as to obtain the absolute efficiency of cell transfection. The relative efficiency of cell transfection was obtained by comparing the cell transfection efficiency with the positive control Lipofectamine Stem.

cardiomyocytes [3] = experiment: Screening as DNA vectors in cardiomyocytes; set-up: concentration or dose not given beside the values; settings: method as Example 4
Experimental: Cell line: cardiomyocytes (obtained from induced differentiation of hESC according to reported methods: J. Mol. Cell. Cardiol. 2011, 51, 288-298)
(§5) Medium: DMEM supplemented with 10% fetal bovine serum (Invitrogen)
as §3
(§6) Detection (readout): percentage of the number of GFP fluorescent cells relative to the total number of cells (the total number of cells was determined using nucleus dye Hoechst). Lipofectamine Stem (Invitrogen) was used as the positive control, according to the manufacturer's instructions.
(§7) Method: the experimental method was basically the same with Example 4.

MCF7 cells [4] = experiment: Transfection of MCF7 cell line, mRNA vectors; settings: 50 ng EGFP mRNA per well
Experimental: (§8) Cell line: MCF7 cells (ATCC HTB-22)
Medium: DMEM supplemented with 10 fetal bovine serum (Invitrogen)
(§9) Screening: cell transfection on 96-well plates
Detection (readout): percentage of the number of GFP fluorescent cells relative to the total number of cells (the total number of cells was determined using nucleus dye Hoechst). Lipofectamine2000 (Invitrogen) was used as the positive control.
Method: the experimental method was basically the same with Example 4, and the mass of EGFP mRNA (TriLink) for transfection was 50 ng per well.

cardiomyocytes [5] = experiment: Screening as mRNA vectors in cardiomyocytes; settings: 50 ng EGFP mRNA per well
Experimental: Cell line: cardiomyocytes (obtained from induced differentiation of hESC according to reported methods: J Mol. Cell. Cardiol. 2011, 51, 288-298)
as §5, §3, §6
Method: the experimental method was basically the same with Example 4, and the mass of EGFP mRNA for transfection was 50 ng per well.

MCF7 cells [6] = experiment: Transfection of MCF7 cell line, DNA vectors; set-up: concentration or dose not given beside the values; settings: plasmid DNA, GFP cells / total cells
Experimental: as §8
Medium DMEM supplemented with […] fetal bovine serum
as §9
Detection (readout): percentage of the number of GFP fluorescent cells relative to the total number of cells (the total number of cells was determined using nucleus dye Hoechst). Lipofectamine2000 was used as the positive control, according to the manufacturer's instructions.
as §7

Hela cells [7] = experiment: Transfection of Hela cell line, DNA vectors; settings: 75 ng plasmid DNA, GFP cells / total cells
In short: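 Amino lipid/DOPE liposomes in sodium acetate pH 5.6 were complexed with 75 ng psin-EGFP-IRES-Puro plasmid for 30 min at room temperature, then mixed with 3-5×10^4 Hela cells in DMEM/10% FBS at 37° C. Hoechst stain after 20-24 h, imaging after a further 20-24 h. Efficiency = GFP-positive cells / total nuclei.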

[8] = test system: embryonic stem cells (hESC2); experiment: Screening as mRNA vectors in embryonic stem cells; settings: 50 ng EGFP mRNA per well
Experimental: as §1, §2
Mode of screening: cell transfection on 96-well plate
as §4
Method: the experimental method was basically the same with Example 10, and the mass of EGFP mRNA for transfection was 50 ng per well.

HEK293 cells [9] = experiment: Preliminary screening as DNA vectors, GFP transfection of HEK293 cells; settings: HEK293 cells; lipid/DOPE liposome with 75 ng plasmid DNA (psin-EGFP-IRES-Puro); number of cells expressing GFP divided by total number of nuclei (Hoechst)
In short: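 HEK293 cells in DMEM/10% FBS transfected with 75 ng EGFP plasmid per well complexed with amino lipid/DOPE liposomes in pH 5.6 sodium acetate. Hoechst nuclear stain added 20-24 h post-transfection, then cells cultured another 20-24 h. Confocal imaging gives GFP-positive cells as % of total nuclei.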

HEK293 cells [10] = experiment: Preliminary screening as mRNA vectors, EGFP mRNA transfection of HEK293 cells; settings: HEK293 cells, 96-well plates, EGFP mRNA 50 ng per well; percentage of GFP fluorescent cells relative to total number of cells (Hoechst)
In short: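 HEK293 cells in DMEM plus 10% FBS transfected in 96-well format with 50 ng EGFP mRNA per well; Lipofectamine2000 served as positive control. Read-out is the percentage of GFP-fluorescent cells among total cells, counted by Hoechst nuclear stain.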

SMILES	Absolute mRNA transfection efficiency in Hela cells (Hela cells [1])	Absolute DNA transfection efficiency in embryonic stem cells [2]	Absolute DNA transfection efficiency in cardiomyocytes (cardiomyocytes [3])	Absolute mRNA transfection efficiency in MCF7 cells (MCF7 cells [4])	Absolute mRNA transfection efficiency in cardiomyocytes (cardiomyocytes [5])	Absolute DNA transfection efficiency in MCF7 cells (MCF7 cells [6])	Absolute DNA transfection efficiency in Hela cells (Hela cells [7])	Absolute mRNA transfection efficiency in embryonic stem cells [8]	Absolute DNA transfection efficiency in HEK293 cells (HEK293 cells [9])	Absolute mRNA transfection efficiency in HEK293 cells (HEK293 cells [10])
CCCCCCCCCCCSc1nc(NCCCCCCCCC)nc(NCCCN(C)C)n1 [Compound S11N9D6]	20.3%	1.0%	22.5%	32.6%	8.7%	25.1%	20.3%	0.7%		
CCCCCCCCCCCNc1nc(NCCN2CCN(C)CC2)nc(SCCCCCCCCC)n1 [Compound S9N11D5]	22.5%	3.0%	2.5%	18.0%	18.0%	17.8%	22.5%	3.3%		
CCCCCCCCCCCCCCCCSc1nc(NCC2CCN(C)CC2)nc(SCCCCCCCCC)n1 [Compound S9S16D10]	28.6%			46.0%		36.9%	28.6%		56.9%	66.4%
CCCCCCCCCCCCCCCCSc1nc(NCCCN(C)C)nc(SCCCCCCCCC)n1 [Compound S9S16D6]	27.8%			34.2%		39.7%	27.8%		55.4%	71.5%
CCCCCCCCCCCCCCCCSc1nc(NCCCN2CCN(C)CC2)nc(SCCCCCCCCC)n1 [Compound S9S16D9]	6.9%			33.8%		23.0%	6.9%		13.9%	41.4%
CCCCCCCCCCCCCCCCSc1nc(NCCN2CCCC2)nc(SCCCCCCCCC)n1 [Compound S9S16D3]	0.0%			3.0%		14.1%	0.0%		0.0%	25.3%
CCCCCCCCCCCSc1nc(NCCCCCCC)nc(NCCCN(C)C)n1 [Compound S11N7D6]	17.0%			4.2%		16.2%	17.0%			
CCCCCCCCCCCCCCCCSc1nc(NCCCN2CCOCC2)nc(SCCCCCCCCC)n1 [Compound S9S16D8]	11.6%			7.7%		6.2%	11.6%		23.2%	11.2%
CCCCCCCCCCCCNc1nc(NCCCN(C)C)nc(SCCCCCCCC)n1 [Compound S8N12D6]	39.3%			22.5%		25.5%	39.3%			
CCCCCCCCCCCSc1nc(NCCCN2CCN(C)CC2)nc(SCCCCCCC)n1 [Compound S7S11D9]	12.9%			3.6%		44.5%	12.9%			
CCCCCCCCCCCSc1nc(NCCCCCCC)nc(NCC2CCN(C)CC2)n1 [Compound S11N7D10]	14.7%			9.0%		10.1%	14.7%			
CCCCCCCCCCCCSc1nc(NCCCN2CCN(C)CC2)nc(SCCCCCCC)n1 [Compound S7S12D9]	2.9%			21.2%		14.6%	2.9%			
CCCCCCCCCCCSc1nc(NCCN2CCN(C)CC2)nc(SCCCCCCC)n1 [Compound S7S11D5]	16.8%			16.5%		23.3%	16.8%			
CCCCCCCCCCCCSc1nc(NCCN2CCCC2)nc(SCCCCCCC)n1 [Compound S7S12D3]	4.9%			9.4%		3.0%	4.9%			
CCCCCCCCCCCCCNc1nc(NCCN2CCCC2)nc(SCCCCCCCC)n1 [Compound S8N13D3]	15.7%			18.1%		19.9%	15.7%			
CCCCCCCCCCCCNc1nc(NCCCN2CCN(C)CC2)nc(SCCCCCCCC)n1 [Compound S8N12D9]	24.1%			16.4%		32.0%	24.4%			
CCCCCCCCCCCSc1nc(NCCCCCCC)nc(NCCN2CCCC2)n1 [Compound S11N7D3]	9.8%			5.8%		4.4%	9.8%			
